Source: BindingDB's records for PubMed 11454940 (Sanofi Synthelabo, 2001)
Where “and” joins values, the source holds several entries; their conditions need not be identical. Equal values may be shown once.

Experiments:
[1] = biological target: Gamma-aminobutyric acid receptor subunit alpha-1 (Rattus norvegicus, UniProt P62813)
[2] = biological target: Gamma-aminobutyric acid receptor subunit alpha-2 (Rattus norvegicus, UniProt P23576)
[3] = biological target: Gamma-aminobutyric acid receptor subunit alpha-5 (Rattus norvegicus, UniProt P19969)
[4] = biological target: Gamma-aminobutyric acid receptor subunit alpha-3 (Rattus norvegicus, UniProt P20236)
Sequence of Gamma-aminobutyric acid receptor subunit alpha-3 (P20236 whole entry I342M/K409L): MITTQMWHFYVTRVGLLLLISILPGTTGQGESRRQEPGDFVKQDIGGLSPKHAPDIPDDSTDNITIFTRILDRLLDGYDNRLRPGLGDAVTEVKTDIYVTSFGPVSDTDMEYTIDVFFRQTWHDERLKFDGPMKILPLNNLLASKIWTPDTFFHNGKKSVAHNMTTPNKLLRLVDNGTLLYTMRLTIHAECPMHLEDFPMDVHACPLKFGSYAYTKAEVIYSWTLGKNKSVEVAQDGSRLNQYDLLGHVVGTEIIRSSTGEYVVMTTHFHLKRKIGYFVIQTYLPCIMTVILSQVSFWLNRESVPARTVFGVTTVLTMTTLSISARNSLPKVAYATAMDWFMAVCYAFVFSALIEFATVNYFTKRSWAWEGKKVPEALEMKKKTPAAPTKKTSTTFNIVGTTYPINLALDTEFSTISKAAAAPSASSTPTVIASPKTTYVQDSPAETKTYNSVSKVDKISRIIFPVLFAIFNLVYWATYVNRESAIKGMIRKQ

Sequence of Gamma-aminobutyric acid receptor subunit alpha-2 (P23576 whole entry): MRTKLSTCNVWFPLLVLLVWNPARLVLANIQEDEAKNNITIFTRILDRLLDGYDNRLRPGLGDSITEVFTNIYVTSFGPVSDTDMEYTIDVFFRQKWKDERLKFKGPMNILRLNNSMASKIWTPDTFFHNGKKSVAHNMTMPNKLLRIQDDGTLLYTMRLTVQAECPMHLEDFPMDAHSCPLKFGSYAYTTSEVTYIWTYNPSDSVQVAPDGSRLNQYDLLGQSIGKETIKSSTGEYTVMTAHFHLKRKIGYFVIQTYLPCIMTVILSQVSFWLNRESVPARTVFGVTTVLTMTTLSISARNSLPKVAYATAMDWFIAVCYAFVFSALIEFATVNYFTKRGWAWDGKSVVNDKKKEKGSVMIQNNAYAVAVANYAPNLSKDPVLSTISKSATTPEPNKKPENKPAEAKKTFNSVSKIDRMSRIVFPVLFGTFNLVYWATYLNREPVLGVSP
Sequence of Gamma-aminobutyric acid receptor subunit alpha-5 (P19969 whole entry): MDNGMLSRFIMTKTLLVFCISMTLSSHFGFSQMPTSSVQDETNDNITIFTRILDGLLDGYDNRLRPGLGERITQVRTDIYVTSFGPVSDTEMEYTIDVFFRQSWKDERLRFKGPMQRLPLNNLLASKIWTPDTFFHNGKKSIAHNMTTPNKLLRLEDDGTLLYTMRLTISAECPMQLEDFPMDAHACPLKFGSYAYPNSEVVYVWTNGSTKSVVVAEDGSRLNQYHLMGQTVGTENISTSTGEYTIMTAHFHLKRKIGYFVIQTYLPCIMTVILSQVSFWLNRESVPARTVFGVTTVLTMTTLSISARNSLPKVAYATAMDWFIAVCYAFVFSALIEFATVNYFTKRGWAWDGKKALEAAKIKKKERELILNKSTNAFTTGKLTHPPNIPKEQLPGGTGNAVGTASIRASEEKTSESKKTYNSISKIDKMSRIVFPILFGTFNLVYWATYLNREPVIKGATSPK
Sequence of Gamma-aminobutyric acid receptor subunit alpha-1 (P62813 whole entry): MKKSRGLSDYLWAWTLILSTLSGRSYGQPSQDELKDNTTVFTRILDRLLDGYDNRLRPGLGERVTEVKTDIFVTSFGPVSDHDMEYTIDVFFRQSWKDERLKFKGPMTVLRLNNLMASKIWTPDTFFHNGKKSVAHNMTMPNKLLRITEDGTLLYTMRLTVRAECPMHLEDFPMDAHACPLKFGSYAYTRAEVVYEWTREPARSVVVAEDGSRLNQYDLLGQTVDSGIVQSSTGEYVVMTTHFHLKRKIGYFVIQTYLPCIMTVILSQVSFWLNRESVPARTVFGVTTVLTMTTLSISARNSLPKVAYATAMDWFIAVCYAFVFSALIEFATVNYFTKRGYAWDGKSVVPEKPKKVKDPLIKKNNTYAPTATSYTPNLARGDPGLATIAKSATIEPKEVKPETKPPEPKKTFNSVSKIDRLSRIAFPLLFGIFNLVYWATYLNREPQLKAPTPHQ

Cn1c2ccc(F)cc2c2c(C(=O)N3CCCC3)cn(-c3ccccc3)c(=O)c21 [6-FLUOR-2-FENYL-9-METHYL-4-(PYRROLIDINE-1-CARBONYL)-9H-PYRIDO[3,4B]INDOOL-1(2H)-ON]
Ki [1]: 0.0068 µM and 0.017 µM | Ki [2]: 0.0123 µM and 0.073 µM | Ki [3]: 0.117 µM and 0.215 µM | Ki [4]: 0.0803 µM
